Legend:
TIPARP GST-(TEV) = TIPARP GST-(TEV) (Homo sapiens (Human), UniProt Q7Z3E1); assay: TR-FRET binding assay, TIPARP
Outline: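 N-terminal GST-TEV-tagged human TIPARP with protein/probe mix in 50 mM Tris-HCl pH 8.0, 5 mM MgCl2, 5 µM ZnCl2, 1 mM DTT, 0.15% BSA, 0.01% Triton X-100, plus 1 nM Tb-anti-GST antibody. Compounds at 30 µM to 0.5 nM final, 3-fold steps. TR-FRET ratio read after 2 h at ambient temperature.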

PARP1 GST = PARP1 GST (Homo sapiens (Human), UniProt P09874); assay: TR-FRET binding assay, PARP1; settings: Probe 2, 2 hours incubation
Chain of PARP1 GST (P09874 whole entry): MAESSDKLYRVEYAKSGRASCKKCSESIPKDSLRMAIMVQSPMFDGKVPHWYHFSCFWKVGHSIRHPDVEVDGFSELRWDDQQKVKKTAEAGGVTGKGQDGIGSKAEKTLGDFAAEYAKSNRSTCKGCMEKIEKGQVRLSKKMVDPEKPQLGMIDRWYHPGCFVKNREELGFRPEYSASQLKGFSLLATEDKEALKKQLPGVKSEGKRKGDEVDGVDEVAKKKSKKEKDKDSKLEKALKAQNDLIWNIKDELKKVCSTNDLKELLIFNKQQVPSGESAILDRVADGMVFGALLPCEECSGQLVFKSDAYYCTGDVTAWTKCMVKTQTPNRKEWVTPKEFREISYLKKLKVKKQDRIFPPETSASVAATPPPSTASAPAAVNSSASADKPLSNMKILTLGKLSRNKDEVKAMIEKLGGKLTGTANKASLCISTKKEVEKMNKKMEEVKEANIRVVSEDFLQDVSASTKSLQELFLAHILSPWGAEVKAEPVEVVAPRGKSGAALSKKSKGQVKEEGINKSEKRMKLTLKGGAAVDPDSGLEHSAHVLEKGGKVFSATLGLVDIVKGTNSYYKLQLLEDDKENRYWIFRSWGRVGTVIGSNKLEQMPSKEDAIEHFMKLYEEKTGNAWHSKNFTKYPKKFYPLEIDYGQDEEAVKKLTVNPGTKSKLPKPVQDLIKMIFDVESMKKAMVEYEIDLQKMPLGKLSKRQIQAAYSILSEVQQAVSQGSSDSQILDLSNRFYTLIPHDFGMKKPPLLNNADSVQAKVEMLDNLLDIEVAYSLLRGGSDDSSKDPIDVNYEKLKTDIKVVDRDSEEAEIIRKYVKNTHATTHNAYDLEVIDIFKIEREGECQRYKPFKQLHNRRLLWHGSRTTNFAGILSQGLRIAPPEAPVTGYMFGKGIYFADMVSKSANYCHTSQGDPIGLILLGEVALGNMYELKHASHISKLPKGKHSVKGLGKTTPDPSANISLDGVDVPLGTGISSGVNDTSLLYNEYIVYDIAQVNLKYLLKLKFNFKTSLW
Outline: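 Serially diluted compounds, final 30 μM down to 0.5 nM, incubated 2 h at ambient temperature with GST-tagged protein/probe mix plus 1 nM Tb-anti-GST antibody. Buffer: 50 mM Tris-HCl pH 8.0, 5 mM MgCl2, 5 μM ZnCl2, 1 mM DTT, 0.15% BSA, 0.01% Triton X-100. Binding read as TR-FRET ratio.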

IFNβ = assay: Tumor selective induction of IFNβ in MC-38 (Ker) syngeneic model; type: in vivo, mouse; settings: 3 hours after last dose, PO once daily for 2 days
Procedure: The murine cell line MC-38 derived from C57BL/6 murine colon adenocarcinoma cells was obtained from Kerafast (Boston, MA, USA). A suspension of 2.5×10^5 cells in culture medium mixed with Matrigel® (Corning Life Sciences, Lowell, MA, USA; 1:1, volume:volume) was injected subcutaneously in the right hind flank of female C57BL/6 mice to generate tumor formation. Treatment started when the size of the flank tumors was approximately 500 mm^3. Vehicle and three different doses of Example 1 were administered once daily to each of four to five mice at each dose level for 2 days. Each administration consisted of a single 0.2 mL PO dose in a vehicle formulation (10% ethanol, 30% PEG300, and 60% PHOSAL® 50 PG).
Blood and tumors were collected 3 hours after the last dose. Blood was transferred to microfuge tubes containing E DTA, centrifuged at 2000×g for 8 minutes at 4° C., and the upper plasma layer was transferred to new tubes and frozen at −80° C. Tumors were weighed and 200 to 500 mg of tumor tissue was transferred to microfuge tubes, which were then centrifuged at 15000×g for 10 minutes at 4° C. The supernatant was transferred to a fresh 96 well plate. […] The concentration of IFNβ in the thawed plasma and tumor fluid was determined using a Milliplex MAP mouse IFNβ assay (EMD Millipore, Burlington, MA, USA).

Chain of TIPARP GST-(TEV) (Q7Z3E1 441-657): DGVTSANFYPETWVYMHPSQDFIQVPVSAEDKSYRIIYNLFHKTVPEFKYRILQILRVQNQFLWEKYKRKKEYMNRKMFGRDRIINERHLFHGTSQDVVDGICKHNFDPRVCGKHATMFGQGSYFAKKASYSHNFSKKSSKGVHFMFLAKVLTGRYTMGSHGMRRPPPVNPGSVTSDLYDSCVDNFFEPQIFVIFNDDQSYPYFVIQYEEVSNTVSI

C[C@@H]1CN(c2ncc(C(F)(F)F)cn2)CCN1C(=O)[C@H]1C[C@@H](c2c[nH]c(=O)c(C(F)(F)F)c2)C1 [Example 1, 5-[(1S,3s)-3-{(2R)-2-methyl-4-[5-(trifluoromethyl)pyrimidin-2-yl]piperazine-1-carbonyl}cyclobutyl]-3-(trifluoromethyl)pyridin-2(1H)-one]
IC50 (TIPARP GST-(TEV); TR-FRET, Probe 1, 2 hours incubation): 0.0024 µM | PARP1/TIPARP IC50 Ratio (TIPARP GST-(TEV); ratio of PARP1 GST IC50 to TIPARP GST-(TEV) IC50): 1140 | IC50 (PARP1 GST): 2.74 µM | induction of IFNβ in plasma (IFNβ; plasma): not in plasma | induction of IFNβ in tumors (IFNβ; tumor fluid): induced IFNβ in MC-38 (Ker) tumors compared to vehicle

From patent publication US20250333394A1, “Tiparp Inhibitor Compounds” (AbbVie Inc., priority 2024, published 2025)
